Assay results published in the CheMixHub viscosity set.
“And” between values parts separate entries of the source, which are not always exact repeats. Equal values may be shown once.

Assay: xn = mol fraction of the nth substance listed

c1ccc2ncccc2c1 + Oc1ccccc1Cl
Details	viscosity [mPa·s]
293.15 K, 101 kPa, x2 = 0.1686	6.62
293.15 K, 101 kPa, x2 = 0.3263	13
293.15 K, 101 kPa, x2 = 0.4251	23.62
293.15 K, 101 kPa, x2 = 0.4893	33.45
293.15 K, 101 kPa, x2 = 0.5043	35.1
293.15 K, 101 kPa, x2 = 0.534	36.9
293.15 K, 101 kPa, x2 = 0.5506	37.25
293.15 K, 101 kPa, x2 = 0.5803	36.62
293.15 K, 101 kPa, x2 = 0.6353	31.62
293.15 K, 101 kPa, x2 = 0.7227	21.85
293.15 K, 101 kPa, x2 = 0.8671	9.95
298 K, 101.3 kPa, x1 = 0.0761	4.871
298 K, 101.3 kPa, x1 = 0.1549	7.882
298 K, 101.3 kPa, x1 = 0.2343	11.68
298 K, 101.3 kPa, x1 = 0.3348	19.63
298 K, 101.3 kPa, x1 = 0.4286	26.3
298 K, 101.3 kPa, x1 = 0.5274	21.74
298 K, 101.3 kPa, x1 = 0.6364	12.94
298 K, 101.3 kPa, x1 = 0.7447	8.205
298 K, 101.3 kPa, x1 = 0.8898	4.628
303 K, 101.3 kPa, x1 = 0.0761	4.063
303 K, 101.3 kPa, x1 = 0.1549	6.073
303 K, 101.3 kPa, x1 = 0.2343	9.042
303 K, 101.3 kPa, x1 = 0.3348	14.39
303 K, 101.3 kPa, x1 = 0.4286	18.2
303 K, 101.3 kPa, x1 = 0.5274	16.12
303 K, 101.3 kPa, x1 = 0.6364	10.29
303 K, 101.3 kPa, x1 = 0.7447	6.433
303 K, 101.3 kPa, x1 = 0.8898	4.058
303.15 K, 101 kPa, x2 = 0.1686	4.87
303.15 K, 101 kPa, x2 = 0.3263	9.11
303.15 K, 101 kPa, x2 = 0.4251	14.4
303.15 K, 101 kPa, x2 = 0.4893	17.92
303.15 K, 101 kPa, x2 = 0.5043	18.4
303.15 K, 101 kPa, x2 = 0.534	19
303.15 K, 101 kPa, x2 = 0.5506	19.01
303.15 K, 101 kPa, x2 = 0.5803	18.88
303.15 K, 101 kPa, x2 = 0.6353	17.42
303.15 K, 101 kPa, x2 = 0.7227	12.82
303.15 K, 101 kPa, x2 = 0.8671	6.41
308 K, 101.3 kPa, x1 = 0.0761	3.469
308 K, 101.3 kPa, x1 = 0.1549	5.006
308 K, 101.3 kPa, x1 = 0.2343	7.403
308 K, 101.3 kPa, x1 = 0.3348	11.49
308 K, 101.3 kPa, x1 = 0.4286	14.09
308 K, 101.3 kPa, x1 = 0.5274	12.37
308 K, 101.3 kPa, x1 = 0.6364	8.401
308 K, 101.3 kPa, x1 = 0.7447	5.506
308 K, 101.3 kPa, x1 = 0.8898	3.581
313 K, 101.3 kPa, x1 = 0.0761	2.998
313 K, 101.3 kPa, x1 = 0.1549	4.205
313 K, 101.3 kPa, x1 = 0.2343	6.048
313 K, 101.3 kPa, x1 = 0.3348	9.267
313 K, 101.3 kPa, x1 = 0.4286	11.03
313 K, 101.3 kPa, x1 = 0.5274	9.852
313 K, 101.3 kPa, x1 = 0.6364	7.017
313 K, 101.3 kPa, x1 = 0.7447	4.762
313 K, 101.3 kPa, x1 = 0.8898	3.171
313.15 K, 101 kPa, x2 = 0.1686	3.71
313.15 K, 101 kPa, x2 = 0.3263	6.35
313.15 K, 101 kPa, x2 = 0.4251	8.96
313.15 K, 101 kPa, x2 = 0.4893	10.47
313.15 K, 101 kPa, x2 = 0.5043	10.73
313.15 K, 101 kPa, x2 = 0.534	10.95
313.15 K, 101 kPa, x2 = 0.5506	10.98
313.15 K, 101 kPa, x2 = 0.5803	10.89
313.15 K, 101 kPa, x2 = 0.6353	10
313.15 K, 101 kPa, x2 = 0.7227	7.64
313.15 K, 101 kPa, x2 = 0.8671	4.33
318 K, 101.3 kPa, x1 = 0.0761	2.614
318 K, 101.3 kPa, x1 = 0.1549	3.59
318 K, 101.3 kPa, x1 = 0.2343	4.979
318 K, 101.3 kPa, x1 = 0.3348	7.306
318 K, 101.3 kPa, x1 = 0.4286	8.786
318 K, 101.3 kPa, x1 = 0.5274	7.927
318 K, 101.3 kPa, x1 = 0.6364	5.922
318 K, 101.3 kPa, x1 = 0.7447	4.17
318 K, 101.3 kPa, x1 = 0.8898	2.824

COc1ccccc1N + NCCO
viscosity [mPa·s], 100 kPa
Details	x1 = 0.0897	x1 = 0.1649	x1 = 0.2579	x1 = 0.3519	x1 = 0.4497	x1 = 0.5507	x1 = 0.6549	x1 = 0.7626	x1 = 0.8735
303.15 K	13.58	12.87	11.99	11.1	10.18	9.22	8.23	7.2	6.14
308.15 K	11.07	10.54	9.87	9.2	8.5	7.77	7.02	6.24	5.44
313.15 K	9.09	8.7	8.2	7.7	7.17	6.63	6.07	5.49	4.88
318.15 K	7.24	6.97	6.64	6.29	5.94	5.56	5.18	4.78	4.37

COc1ccccc1N + OCCc1ccccc1
viscosity [mPa·s], 100 kPa
Details	x1 = 0.0957	x1 = 0.1852	x1 = 0.2904	x1 = 0.3921	x1 = 0.4911	x1 = 0.6027	x1 = 0.7023	x1 = 0.8005	x1 = 0.8904
303.15 K	8.66	8.29	7.87	7.45	7.04	6.58	6.17	5.76	5.38
308.15 K	6.95	6.71	6.43	6.16	5.9	5.6	5.33	5.06	4.82
313.15 K	5.91	5.75	5.55	5.36	5.18	4.97	4.77	4.58	4.41
318.15 K	4.89	4.8	4.69	4.58	4.47	4.35	4.23	4.12	4.02

COC(C)=O + CCCCCO
298.15 K, 101.33 kPa
Details	viscosity [mPa·s]
x1 = 0.1014	2.381
x1 = 0.2082	1.64
x1 = 0.2879	1.292
x1 = 0.3821	1.011
x1 = 0.4786	0.823
x1 = 0.5766	0.69
x1 = 0.6788	0.575
x1 = 0.7517	0.505
x1 = 0.846	0.425

COCCOC + O=Cc1ccccc1
298.15 K, 101 kPa
Details	viscosity [mPa·s]
x1 = 0.1157	1.225
x1 = 0.2274	1.082
x1 = 0.3354	0.954
x1 = 0.4398	0.841
x1 = 0.5408	0.741
x1 = 0.6385	0.655
x1 = 0.7332	0.58
x1 = 0.8249	0.515
x1 = 0.9138	0.458

COc1ccccc1N + CCCC(=O)O
viscosity [mPa·s], 100 kPa
Details	x1 = 0.1187	x1 = 0.1967	x1 = 0.2806	x1 = 0.3708	x1 = 0.5026	x1 = 0.6111	x1 = 0.6888	x1 = 0.7711	x1 = 0.9041
303.15 K	1.813	2.094	2.394	2.716	3.184	3.567	3.839	4.126	4.589
308.15 K	1.646	1.911	2.194	2.497	2.937	3.298	3.554	3.824	4.259
313.15 K	1.478	1.726	1.992	2.276	2.689	3.027	3.266	3.519	3.926
318.15 K	1.313	1.547	1.796	2.063	2.451	2.768	2.992	3.229	3.611

N[C@@H](Cc1ccccc1)C(=O)O + O
viscosity
Details	298.15 K	303.15 K	308.15 K	313.15 K
100 kPa, x1 = 0.0004	0.8956 mPa·s	0.8037 mPa·s	0.7264 mPa·s	–
100 kPa, x1 = 0.0007	0.8984 mPa·s	0.8062 mPa·s	0.7289 mPa·s	0.6638 mPa·s
100 kPa, x1 = 0.001	0.901 mPa·s	0.8088 mPa·s and 0.8113 mPa·s	0.7315 mPa·s and 0.7343 mPa·s	0.6689 mPa·s and 0.6664 mPa·s
100 kPa, x1 = 0.0018	0.9067 mPa·s	0.8139 mPa·s	–	0.6713 mPa·s
100 kPa, x1 = 0.0022	0.9093 mPa·s	0.8169 mPa·s	0.7395 mPa·s	0.6738 mPa·s
101 kPa, x1 = 0.00018	0.912 mPa·s	0.803 mPa·s	0.731 mPa·s	0.658 mPa·s
101 kPa, x1 = 0.000362	0.919 mPa·s	0.809 mPa·s	0.734 mPa·s	–
101 kPa, x1 = 0.000725	0.927 mPa·s	0.822 mPa·s	0.745 mPa·s	0.671 mPa·s
101 kPa, x1 = 0.000909	0.931 mPa·s	0.825 mPa·s	0.749 mPa·s	0.674 mPa·s
101 kPa, x1 = 0.00109	0.949 mPa·s	0.841 mPa·s	–	0.688 mPa·s
101 kPa, x1 = 0.00146	0.959 mPa·s	0.849 mPa·s	0.767 mPa·s	0.692 mPa·s
